Measurements taken from paper PMC10016038, “Enhanced Endosomal Signaling and Desensitization of GLP-1R vs GIPR in Pancreatic Beta Cells” (Endocrinology, 2023).
“Also recorded” adds a separate entry of the source.

What was measured:
SNAP-tagged human GIPR = experiment: High-content microscopy internalization, SNAP-GIPR; format: cell-based; details: BG-S-S-649, 30 min, 37 °C, respective endogenous agonists, n = 5
Method: The assay was performed as previously described ([21]). The INS-1 832/3 SNAP-GLP-1R or SNAP-GIPR cells were seeded into poly-D-lysine-coated, black 96-well plates. On the day of the assay, labeling was performed with BG-S-S-649 (1 µM), a surface-labeling SNAP-tag probe that can be released on application of reducing agents such as Mesna. After washing, treatments were applied for 30 minutes at 37 °C in complete medium. Ligand was removed and cells washed with cold HBSS and placed on ice for subsequent steps. Mesna (100 mM in alkaline TNE buffer, pH 8.6) or alkaline TNE buffer without Mesna was applied for 5 minutes, and then washed with HBSS. Cells were imaged by widefield microscopy, with both epifluorescence and transmitted phase contrast images acquired. On imaging completion, HBSS was removed and replaced with fresh complete medium, and receptor was allowed to recycle for 60 minutes at 37 °C, followed by a second Mesna application to remove any receptor that had recycled to the plasma membrane, with the plate re-imaged as above. Internalized receptor at each time point was determined from cell-containing regions as determined from the phase contrast image using […] ([22]) and used to determine internalization and recycling parameters as previously described ([21]). […]

[1] = system: cAMP response in mouse islet beta cells; experiment: cAMP FRET assay, Pdx1-CreERT/CAMPER islets; format: cell-based; details: 100 nM, n = 4
Method: Nondiabetic mice of both sexes were used for islet isolation. Briefly, pancreata were infused via the common bile duct with RPMI-1640 medium containing 1 mg/mL collagenase from Clostridium histolyticum (Nordmark Biochemicals), dissected, and incubated in a water bath at 37 °C for 10 minutes. Islets were subsequently washed and purified using a Histopaque gradient (Histopaque-1119, 11191, Sigma-Aldrich, and Histopaque-1083, 10831, Sigma-Aldrich). Isolated islets were allowed to recover overnight at 37 °C in 5% CO2 in RPMI-1640 supplemented with 10% FBS and 1% penicillin/streptomycin. […]
CAMPER reporter mice ([30]), with conditional expression of the cAMP fluorescence resonance energy transfer (FRET) biosensor ^TEPAC^VV ([31]), were purchased from Jackson Laboratory (Stock No: 032205) and crossed with Pdx1-Cre^ERT mice (in house) to generate mice with inducible ^TEPAC^VV expression from pancreatic beta cells, used to isolate islets for ex vivo cAMP FRET assays. […] Raw intensity traces for YFP and CFP fluorescence were extracted from whole islet ROIs using Fiji and YFP/CFP ratios calculated for each ROI and time point. Responses were plotted relative to the average fluorescence intensity per islet during the 6 mM glucose baseline period, before agonist addition. […]

INS-1 832/3 WT cells = experiment: Insulin secretion assay, INS-1 832/3 WT cells; format: cell-based, rat; details: 100 nM, 11 mM glucose; WT n = 3
Method: At the end of the treatments, the supernatant containing the secreted insulin was collected, centrifuged at 1000g for 3 minutes, and transferred to a fresh tube. To determine total insulin content, cells were lysed using KRBH buffer + 1% w/v BSA + 1% v/v Triton X-100 (Sigma). The lysates were sonicated 3 × 10 seconds in a water bath sonicator and centrifuged at 10 000g for 10 minutes, and the supernatants collected. The samples were stored at −20 °C until the insulin concentration was determined using an Insulin Ultra-Sensitive HTRF Assay kit (62IN2PEG, Cisbio, Codolet, France) according to the manufacturer's instructions.
Figure 7. Functional analysis of GLP-1R vs GIPR signaling in beta cells. […] Data are mean ± SEM, compared by paired t tests; *P < .05; ns, nonsignificant.

SNAP-GLP-1R = experiment: Nb37 bystander NanoBiT, plasma membrane (CAAX), GLP-1R; format: cell-based, human; details: 30-minute AUC, n = 4
From the text: The Nb37 assay constructs were kindly provided by Prof. Asuka Inoue, Tohoku University, Japan. Nb37 (gene synthesized by GenScript with codon optimization) was C-terminally fused to SmBiT with a 15 amino acid flexible linker ([…]), and the resulting construct referred to as Nb37-SmBiT. The C-terminal KRAS CAAX motif ([…]) was N-terminally fused with LgBiT (LgBiT-CAAX). The Endofin FYVE domain (amino acid region Gln739-Lys806) was C-terminally fused with LgBiT (Endofin-LgBiT). Gαs (human, short isoform), Gβ1 (human), Gγ2 (human), and RIC8B (human, isoform 2) plasmids were inserted into pcDNA3.1 or pCAGGS expression plasmid vectors. INS-1 832/3 GLP-1R KO or GIPR KO cells were seeded in 6-well plates and co-transfected with 0.1 μg SNAP-GLP-1R or SNAP-GIPR, 0.5 μg Gαs, Gβ1, and Gγ2, 0.1 μg RIC8B, 0.1 μg CAAX-LgBiT or 0.5 μg Endofin-LgBiT with 0.1 μg or 0.5 μg Nb37-SmBiT, respectively, with 0.8 µg pcDNA3.1 added to the former to equalize DNA content.
All NanoBiT and NanoBRET readings were obtained in a Flexstation 3 plate reader. […] Readings were normalized to well baseline and then to average vehicle-induced signal to establish the agonist-induced effect. AUCs from response curves were calculated for each agonist concentration and fitted to four-parameter curves using Prism 9 (GraphPad). […]

Substance	Internalization of GIPR compared with GLP-1R (SNAP-tagged human GIPR)	cAMP response, GIP compared with GLP-1, mouse islet beta cells [1]	Insulin secretion, GIP compared with GLP-1 (INS-1 832/3 WT cells)	Recruitment of Nb37 to active GLP-1Rs vs GIPRs within the plasma membrane (SNAP-GLP-1R)
GIP(1-42)	significantly less internalization	a tendency replicated in primary mouse islet beta cells; also recorded: nonsignificant tendency toward increased cAMP	nonsignificant tendency toward improvement; also recorded: tendency toward increased	
GLP-1(7-36)NH2				no significant differences
